Patent US12479858B2, “Macrocyclic compounds as sting agonists and methods and uses thereof” (Lupin Limited, priority 2019, dated 2025)
Structures can show the parent of a compound that is named as a salt.

Columns and labels:
CT26 Allograft = test: Tumor volume in CT26 allograft BALB/c mice model, intravenous administration; format: in vivo; conditions: for effect on tumor volume / subjects exhibiting complete tumor regression: i.v., indicated dose at days 1, 4, and 8
Protocol: Effect of Compounds on Tumor Volume in CT26 Allograft BALB/c Mice Model by Intravenous (i.v.) Administration
Healthy, female BALB/c mice in the age group of 5-8 weeks issued from Research Animal Facility (RAF). These mice were housed in individually ventilated cages (IVC) in the experimental animal room and were acclimatized not less than 5 days prior to cell inoculation. All the experimental activities were carried out inside the biosafety cabinet to ensure sterility. Under aseptic conditions, Allograft tumor model was generated by inoculating BALB/c mice with 0.1 million CT26 single cell suspension (colorectal cancer model), using 1 mL disposable syringe fitted with a 26G ½″ sterile needle. Each mouse was inoculated with 100 μL of CT26 cell suspension in phosphate buffered saline (PBS) media, subcutaneously in right flank region. Mice were randomized into different groups, post cell inoculation, with approximately equal mean and equal variation (S.E.M.) of tumor volumes in various treatment groups including vehicle control group.
Tumor size was measured with Vernier caliper when the tumor became palpable. Tumor volume (T. V.) was calculated by using the formula: Tumor volume (mm^3)=(L×W^2)/2 • Where, L—Length of tumor, W—Width of tumor
Mice were selected and randomized, on the basis of tumor volume, into required no. of groups with approximately equal mean and equal variation on day 1 of treatment, post-tumor cell inoculation. All study groups were treated via intravenous route on day 1, 4 and 8 dosing schedule, through lateral tail vein at a dose volume of 5 mL/kg.
Tumor sizes were measured with Vernier caliper twice weekly and body weights of mice were recorded daily.
Percent tumor growth inhibition (% TGI) was calculated using the formula: % TGI=[1−(Tf−Ti)/(Cf−Ci)]×100 Wherein Tf and Ti are the final and initial test tumor volumes, respectively, and Cf and Ci are the final and initial control mean tumor volumes, respectively.
Percent Tumor Regression (% TR) was calculated using the formula: % TR=[(Initial T.V.−Final T.V.)/(Initial T.V.)]×100 Wherein T.V.=Tumor Volume
Body weight change (%) was calculated by using the formula: Body weight change (%)[=(Final B.Wt.)−(Initial B.Wt.)/Initial B.Wt.]×100 Wherein B.Wt.=Body weight

[1] = Apparent solubility/extended kinetic solubility by UHPLC; format: physicochemical; conditions: aqueous buffer, thermodynamic from solid, phosphate buffer, 37° C.
Protocol: Biological Assay—Determination of Apparent Solubility/Extended Kinetic Solubility by UHPLC
Test sample preparation: About 0.5 mg of the test sample was weighed and transferred in duplicate in 1 mL glass inserts of 96 well plates. 5 μL of DMSO and 1 ml of phosphate buffer were added. Allowed for equilibrium in an orbital shaker at 37° C. for 24 hrs. Later, allowed it cool to room temperature and centrifuged the 96 well plate (at 240×10 RPM for 20 min) and supernatant material was taken into collection plate, covered it with the heat resistant aluminum sheet or supernatant material was directly taken into HPLC sample vial.
Injected diluent as blank and linearity solutions in duplicate. Recorded the chromatograms and plotted the calibration curve, concentration (X-axis) versus Area (y-axis). The correlation coefficient for calibration curve should be not less than 0.95. If above criteria passes, then injected the test samples and recorded the chromatograms. In case saturated peaks are observed, then diluted the test sample with diluent as appropriate.
Calculated the slope and intercept of the calibration curve. From the standard curve, determined the solubility of the sample in μM (micromolar).

SMILES	effect on body weight (CT26 Allograft; 3 mpk (mg/kg)) [%]	effect on tumor volume (CT26 Allograft)	subjects exhibiting complete tumor regression (CT26 Allograft)	effect on tumor volume at high dose (CT26 Allograft; two different doses, days 1, 4, and 8, n=10 (FIG. 6))	solubility at 24 h [1] [mM]
CCn1nc(C)cc1C(=O)Nc1nc2cc(C(N)=O)cc3c2n1C/C=C/Cn1c(NC(=O)c2cc(C)nn2CC)nc2cc(C(=O)N[C@H]4CC[C@H](C(=O)O)CC4)cc(c21)OCCCO3 [Compound 2, (1R,4R)-4-((E)-12-carbamoyl-1,15-bis(1-ethyl-3-methyl-1H-pyrazole-5-carboxamido)-8,9,16,19-tetrahydro-7H-6,10-dioxa-2,14,15a,19a-tetraazacyclopentadeca[3,2,1-cd:8,9,10-c′d′]diindene-4-carboxamido)cyclohexane-1-carboxylic acid sodium salt]	< 10	reduces tumor volume	7 out of 9	reduces tumor volume	3.57
CCn1nc(C)cc1C(=O)Nc1nc2cc(C(N)=O)cc3c2n1C/C=C/Cn1c(NC(=O)c2cc(C)nn2CC)nc2cc(C(=O)N[C@H]4CC[C@H](c5nnn[nH]5)CC4)cc(c21)OCCCO3 [Compound 6, (E)-N-((1R,4R)-4-(1H-tetrazol-5-yl)cyclohexyl)-1,15-bis(1-ethyl-3-methyl-1H-pyrazole-5-carboxamido)-8,9,16,19-tetrahydro-7H-6,10-dioxa-2,14,15a,19a-tetraazacyclopentadeca[3,2,1-cd:8,9,10-c′d′]diindene-4,12-dicarboxamide sodium salt]	–	reduces tumor volume	7 out of 9	–	3.5
CCn1nc(C)cc1C(=O)Nc1nc2cc(C(N)=O)cc3c2n1C/C=C/Cn1c(NC(=O)c2cc(C)nn2CC)nc2cc(C(=O)NCCCn4cc(C(=O)O)cn4)cc(c21)OCCCO3 [Compound 8, (E)-1-(3-(12-carbamoyl-1,15-bis(1-ethyl-3-methyl-1H-pyrazole-5-carboxamido)-8,9,16,19-tetrahydro-7H-6,10-dioxa-2,14,15a,19a-tetraazacyclopentadeca[3,2,1-cd:8,9,10-c′d′]diindene-4-carboxamido)propyl)-1H-pyrazole-4-carboxylic acid sodium salt]	–	reduces tumor volume	5 out of 9	–	5.23
CCn1nc(C)cc1C(=O)Nc1nc2cc(C(N)=O)cc3c2n1C/C=C/Cn1c(NC(=O)c2cc(C)nn2CC)nc2cc(C(=O)N[C@H]4CC[C@H](c5nnn[nH]5)CC4)cc(c21)OC[C@@H](N1C2CCC1COC2)CO3 [Compound 12, (8S,E)-N4-((1R,4S)-4-(1H-tetrazol-5-yl)cyclohexyl)-8-(3-oxa-8-azabicyclo[3.2.1]octan-8-yl)-1,15-bis(1-ethyl-3-methyl-1H-pyrazole-5-carboxamido)-8,9,16,19-tetrahydro-7H-6,10-dioxa-2,14,15a,19a-tetraazacyclopentadeca[3,2,1-cd:8,9,10-c′d′]diindene-4,12-dicarboxamide sodium salt]	–	reduces tumor volume	8 out of 10	–	14.2
CCn1nc(C)cc1C(=O)Nc1nc2cc(C(N)=O)cc3c2n1C/C=C/Cn1c(NC(=O)c2cc(C)nn2CC)nc2cc(C(=O)N[C@H]4CC[C@H](C(=O)O)CC4)cc(c21)OC[C@@H](N1C2CCC1COC2)CO3 [Compound 14, (1S,4R)-4-((8S,E)-8-(3-oxa-8-azabicyclo[3.2.1]octan-8-yl)-12-carbamoyl-1,15-bis(1-ethyl-3-methyl-1H-pyrazole-5-carboxamido)-8,9,16,19-tetrahydro-7H-6,10-dioxa-2,14,15a,19a-tetraazacyclopentadeca[3,2,1-cd:8,9,10-c′d′]diindene-4-carboxamido)cyclohexane-1-carboxylic acid sodium salt]	–	reduces tumor volume	6 out of 9	–	6.8
